# Key:
# [1] = system: Leptinotarsa decemlineata; test: Antifeedant activity against adult Leptinotarsa decemlineata fed on compound treated potato foliage by choice feeding assay; assay type: functional, organism-based
# [2] = system: Spodoptera littoralis; test: Antifeedant activity against […] Spodoptera littoralis fed on compound treated artificial diet by choice feeding assay; assay type: functional, organism-based
# [3] = system: Spodoptera littoralis; test: Antifeedant activity against Spodoptera littoralis fed on compound treated artificial diet assessed as food ingested by choice feeding assay relative to control; assay type: functional
# [4] = system: Spodoptera littoralis; test: Antifeedant activity against Spodoptera littoralis fed on compound treated artificial diet assessed as larval weight gain by choice feeding assay relative to control; assay type: functional
# [5] = system: Myzus persicae; test: Antifeedant activity against apterous adult Myzus persicae (green peach aphid) fed on compound treated bell pepper assessed as settling on leaf by choice feeding assay (reference value: 52 to 70%); assay type: functional
SMILES,EC50 [1] [microg/cm2],EC50 [2] [microg/cm2],Activity [3] [%],Activity [4] [%],Activity [5] [%]
CC12CCC(CC1=O)C2(C)C (stereo not given) [CAMPHOR],> 50,> 50,83,97,40
CC12CCC(CC1)C(C)(C)O2 [EUCALYPTOL],> 50,> 50,95,96,37
C=C1C(=O)C(C)=C(C)C1(C)C,> 50,> 50,88,87,48
CC12CCC(C1)C(C)(C)C2=O (stereo not given) [FENCHONE],> 50,> 50,91,100,30
